Source: patent US11174286B2, “Inhibitors of NF κ-B activity for treatment of diseases and disorders” (priority 2014, dated 2021)

How the values were obtained:
[1] = tested on: human dermal fibroblasts; test: Gene microarray analysis of gene expression; type: cell-based; conditions: 1.0 micromolar peptide
Excerpt: (§1) NF κB inhibitor peptide SEQ ID NO: 010 down-regulates expression of genes known to be associated with the pathobiological action of NF κB and TNF α. […] The upregulation of certain target genes by the transcription factor NF κB is a major contributory factor in diseases and disorders attributed to the activation of NF κB. The downregulation of these genes by the NF κB inhibitor peptides can be expected to provide prophylaxis and therapy for such disorders. (The downregulation of some of these genes was confirmed in vivo in a study to examine the efficacy of NF κB inhibitor peptide, SEQ ID NO: 010.) Certain genes were also tested in a rodent squamous cell carcinoma model, by PCR and by immunoblots (mRNA levels were monitored by PCR and the corresponding protein levels were monitored by immunoblots).

[2] = In vivo study confirming gene downregulation
Excerpt: as §1

[3] = tested on: chemically induced tumor in hamster cheek; test: DMBA-induced oral tumor in hamster buccal pouch, topical peptide gel; type: in vivo, Syrian hamsters; conditions: hamster cheek, FIG. 6C
Protocol: A peptide inhibitor of NF κB activity disclosed herein was tested for treatment of induced oral tumors. Male Syrian hamsters aged 8 to 10 weeks weighing between 100 and 110 g were used. The animals were fed a standard pellet diet and water ad libitum, and were maintained in accordance with applicable ethical and institutional guidelines. The animals were randomized into 10 groups of 8 animals each, and the right buccal pouches of hamsters in groups 1-5 were painted with 0.5% 7,12-dimethylbenz[a]anthracene (DMBA) in liquid paraffin three times a week for 12 weeks.
Mucoadhesive gels containing peptides were prepared by slowly adding Noveon AA1 (0.675% w/w) and Carbopol 971P NF (0.788% w/w) to purified water. The mixture was stirred at 1,025 rpm for one hour to allow full rehydration. Then 0.9% w/w glycerine, 2-phenoxyethanol, benzyl alcohol, and EDTA were added, followed by mixing at 875 rpm for one hour at room temperature. Finally, the desired peptide was added to the gel, and the gel mixed at 875 rpm for one hour to homogenize the gel (Kavitha et al., Biochimie 102:56-67 (2014); Mallery et al., Pharm Res. 24(4):728-737 (2007)).
Hamsters in Group 1 received no further treatment. For hamsters in Groups 2 and 3, peptide gel was applied topically to the right buccal pouches of the hamsters from the 12th to the 18th week daily at concentrations of 10 microgram/ml (2.35 microgram dosage of peptide per application) and 100 microgram/ml (23.5 microgram dosage of peptide per application) respectively. Another group of animals painted with liquid paraffin alone served as control. The experiment was terminated after 18 weeks and all animals were sacrificed by cervical dislocation after an overnight fast.

NVAENA [SEQ ID NO:010]
expression of genes associated with the pathobiological action of NF κB and TNF α [1]: down-regulates | downregulation of some of these genes in vivo [2]: confirmed | histology of DMBA-treated tissue after peptide treatment [3]: histology is closer to normal histology after treatment
